In PubChem BioAssay (NCI):
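Each compound was tested at five concentrations against cells in 96-well plates for 48 hours. Abbreviation: GI50, concentration required for 50% inhibition of growth. Definition used: TGI = concentration required for complete inhibition of growth.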

Columns and labels:
Test in all cases: DTP human tumour cell line panel, 48 h
[1] = test system: DLD-1 colon
[2] = test system: EKVX NSCLC
[3] = test system: SK-OV-3 ovarian
[4] = test system: SNB-78 CNS
[5] = test system: KM20L2 colon
[6] = test system: HS 578T breast
[7] = test system: MDA-N
[8] = test system: A498 renal
[9] = test system: MDA-MB-435
[10] = test system: PC-3 prostate
[11] = test system: 786-0 renal
[12] = test system: RXF 393 renal
[13] = test system: T-47D breast

SMILES | TGI [1] [µM] | TGI [2] [µM] | TGI [3] [µM] | TGI [4] [µM] | TGI [5] [µM] | TGI [6] [µM] | TGI [7] [µM] | TGI [8] [µM] | TGI [9] [µM] | TGI [10] [µM] | TGI [11] [µM] | TGI [12] [µM] | TGI [13] [µM] | GI50 [6] [µM] | GI50 [8] [µM] | GI50 [9] [µM] | GI50 [2] [µM] | GI50 [3] [µM] | GI50 [12] [µM] | GI50 [13] [µM]
O=c1ccc2nc3cc(Br)ccc3sc-2c1 | > 100 | > 100 | > 100 | > 100 | > 100 |  |  |  |  |  |  |  |  |  |  |  |  |  |  | 
O=C(CSc1nc2ccc([N+](=O)[O-])cc2s1)c1ccc2ccccc2c1 |  | > 100 | > 100 |  |  | > 100 | > 100 | > 100 | > 100 | > 100 | > 100 | > 100 | > 100 |  |  |  |  |  |  | 
COc1cc2oc(=O)ccc2cc1C(=O)CC(C)C |  | > 100 | > 100 |  |  | > 100 | > 100 | > 100 | > 100 | > 100 | > 100 |  | > 100 |  |  |  |  |  |  | 
CN(C)c1ccc(C=Nc2ccc(Oc3ccc(Cl)cc3)c(Cl)c2)cc1 |  | 40.8 | 55.9 |  |  | 33.2 | 52.8 |  | > 100 | 36.2 |  |  | 75.3 |  |  |  |  |  |  | 
CC(=O)OC1CC[C@@]2(C)C(=CC[C@@H]3[C@@H]2CC[C@]2(C)Nc4nn(S(C)(=O)=O)cc4C[C@@H]32)C1 (stereo not given in full) |  |  | > 100 |  |  | > 100 | 74.5 | > 100 | 50.1 | > 100 |  | 95.3 | 54.5 |  |  |  |  |  |  | 
Cn1cnc([N+](=O)[O-])c1Sc1nc(N)nc2c1ncn2C1OC(CO)C(O)C1O (stereo not given) | > 100 | > 100 | 45.5 | > 100 | 28.8 | > 100 | > 100 |  | 29.7 | > 100 | > 100 | 21.6 | > 100 |  |  |  |  |  |  | 
Cn1c(=O)[nH]c2nncnc2c1=O | > 625 | 289 | 498 | > 625 | > 306 |  |  | 475 |  |  |  | 123 |  |  |  |  |  |  |  | 
OC(c1ccccc1)(c1ccccc1)c1nccc2ccccc12 |  | 83.5 | 70.2 |  |  | > 100 | > 100 |  | > 100 | > 100 | > 100 |  | > 100 |  |  |  |  |  |  | 
O=C(O)c1ccc(C(=O)c2ccccc2C(=O)O)cc1C(=O)O |  | > 100 | > 100 |  |  | > 100 | > 100 | > 100 | > 100 | > 100 | > 100 | > 100 | > 100 |  |  |  |  |  |  | 
CC(C)(C)OC(=O)NC(CCCCNC(=O)OCc1ccccc1)C(=O)NCCNc1ccc(NCCNC(=O)C(CCCCNC(=O)OCc2ccccc2)NC(=O)OC(C)(C)C)c2c1C(=O)c1ccccc1C2=O (stereo not given) |  | > 100 | > 90.1 |  |  | > 49.7 | > 100 | > 100 | > 100 | > 100 | > 100 | 88.9 | 28 |  |  |  |  |  |  | 
COc1ccc(C(=O)C2=NON3OC23C(=O)c2ccc(OC)cc2)cc1 (stereo not given) | 21.5 | 34.1 | 33.7 | 42.3 | 35.5 |  |  | 18.2 |  |  | 10.6 | 17.1 |  |  |  |  |  |  |  | 
Cc1coc2c1C[C@@]1(C)[C@H](CCC[C@@H]1C)[C@H]2O |  | > 100 | > 100 |  |  | > 100 | > 100 |  | 92.1 | > 100 |  | 48.8 | 84.2 |  |  |  |  |  |  | 
OCc1cn(C(c2ccccc2)(c2ccccc2)c2ccccc2)cn1 |  |  | > 100 |  |  | 95.7 | > 100 |  | > 100 | > 100 |  |  | > 100 |  |  |  |  |  |  | 
COc1nc2[nH]ccc2c(=O)[nH]1 | > 100 | > 100 |  | > 100 | > 100 |  |  | > 100 |  |  |  | > 100 |  |  |  |  |  |  |  | 
N#CC12Cc3cc4c(cc3-c3cccc(c31)CCN2C(=O)c1ccccc1)OCO4 (stereo not given) | > 100 | > 100 | > 100 | > 100 | > 100 |  |  | > 100 |  |  |  | > 100 |  |  |  |  |  |  |  | 
COCC1CCCN1c1ccc(C=N/C(C#N)=C(\N)C#N)cc1 (stereo not given) |  | > 100 | > 100 |  |  | > 100 |  | > 100 | > 100 |  |  | > 100 | > 100 | > 100 | > 100 | > 100 | > 100 | 27.5 | 38.4 | > 100
